Source: US8420830B2, “Macrocyclic factor VIIa inhibitors useful as anticoagulants” (Bristol-Myers Squibb Company, priority 2006, dated 2013)
“And” between values parts separate entries of the source, which are not always exact repeats. Equal values may be shown once. Where a name gives a salt, the structure may show the parent alone.

Biological target: T1, Factor VIIa (Homo sapiens, UniProt P08709)
T1 construct: purchased Haematologic Technologies (purified) or Novo Nordisk (recombinant)
Assay: Factor VIIa assay
Type: biochemical
Details: measured in the Factor VIIa assay described above; several values in a cell are repeat determinations

T1 sequence (P08709 213-466 limits assumed): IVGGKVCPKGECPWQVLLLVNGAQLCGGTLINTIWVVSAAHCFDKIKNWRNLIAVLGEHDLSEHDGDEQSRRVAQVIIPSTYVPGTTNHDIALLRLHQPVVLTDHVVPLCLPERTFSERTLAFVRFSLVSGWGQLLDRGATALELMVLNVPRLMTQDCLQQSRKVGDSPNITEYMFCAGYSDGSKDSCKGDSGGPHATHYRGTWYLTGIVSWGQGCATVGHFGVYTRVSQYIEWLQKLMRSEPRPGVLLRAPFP
T1 sequence (P08709 61-212 limits assumed): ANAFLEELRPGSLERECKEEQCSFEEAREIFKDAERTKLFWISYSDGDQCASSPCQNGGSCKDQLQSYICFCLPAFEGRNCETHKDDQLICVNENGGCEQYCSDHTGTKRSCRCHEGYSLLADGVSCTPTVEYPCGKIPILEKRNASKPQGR
T1 sequence (P13726 33-251 partner limits assumed): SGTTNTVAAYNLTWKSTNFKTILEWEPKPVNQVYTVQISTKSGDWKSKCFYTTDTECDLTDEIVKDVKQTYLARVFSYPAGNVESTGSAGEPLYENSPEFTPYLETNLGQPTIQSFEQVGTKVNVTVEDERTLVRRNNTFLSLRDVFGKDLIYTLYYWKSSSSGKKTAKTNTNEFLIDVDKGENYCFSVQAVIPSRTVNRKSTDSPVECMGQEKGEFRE

Ki	SMILES
0.0281 µM	CCC(=O)N1CC(=O)Nc2ccc(S(=O)(=O)C(C)C)c(c2)CNC(=O)C(Nc2ccc3nc[nH]c(=O)c3c2)c2cc(C)c(c(C)c2)C1 (centres unmarked) [Example 118, 17,20-Dimethyl-2-(4-oxo-3,4-dihydro-quinazolin-6-ylamino)-7-(propane-2-sulfonyl)-14-propionyl-4,11,14-triaza-tricyclo[14.2.2.1^6,10]henicosa-1(19),6,8,10(21),16(20),17-hexaene-3,12-dione trifluoroacetate]
1.52 µM	Cc1cc2cc(C)c1CCOC(=O)Nc1cccc(c1)CN(C)C(=O)C2Nc1ccc2cc[nH]c(=O)c2c1 (centres unmarked) [Example 14, 4,17,20-Trimethyl-2-(1-oxo-1,2-dihydro-isoquinolin-7-ylamino)-13-oxa-4,11-diaza-tricyclo[14.2.2.1^6,10]henicosa-1(19),6,8,10(21),16(20),17-hexaene-3,12-dione]
0.00088 µM	Cc1cc2ccc1[C@@H](C)COC(=O)Nc1ccc(S(=O)(=O)C3CC3)c(c1)CN(C)C(=O)[C@@H]2Nc1ccc2cc[nH]c(=O)c2c1 [Example 79, (2R,15R)-7-Cyclopropanesulfonyl-4,15,17-trimethyl-2-(1-oxo-1,2-dihydro-isoquinolin-7-ylamino)-13-oxa-4,1-diaza-tricyclo[14.2.2.1^6,10]henicosa-1(19),6,8,10(21),16(20),17-hexaene-3,12-dione]
1.06 µM	COCCN1Cc2cccc(c2)NC(=O)OC[C@H](C)c2ccc(cc2C)[C@@H](Nc2ccc3cc[nH]c(=O)c3c2)C1=O [Example 152, (2R,15R)-4-(2-Methoxy-ethyl)-15,17-dimethyl-2-(1-oxo-1,2-dihydro-isoquinolin-7-ylamino)-13-oxa-4,11-diaza-tricyclo[14.2.2.1^6,10]henicosa-1(19),6,8,10(21),16(20),17-hexaene-3,12-dione]
0.0236 µM	CCN1CC(=O)Nc2ccc(S(=O)(=O)C(C)C)c(c2)CNC(=O)C(Nc2ccc3nc[nH]c(=O)c3c2)c2cc(C)c(c(C)c2)C1 (centres unmarked) [Example 121, 14-Ethyl-17,20-dimethyl-2-(4-oxo-3,4-dihydro-quinazolin-6-ylamino)-7-(propane-2-sulfonyl)-4,11,14-triaza-tricyclo[14.2.2.1^6,10]henicosa-1(19),6,8,10(21),16(20),17-hexaene-3,12-dione bistrifluoroacetate]
1 µM	CCOC(=O)CCN1Cc2cccc(c2)NC(=O)OC[C@H](C)c2ccc(cc2C)[C@@H](Nc2ccc3cc[nH]c(=O)c3c2)C1=O [Example 154, 3-[(2R,15R)-15,17-Dimethyl-3,12-dioxo-2-(1-oxo-1,2-dihydro-isoquinolin-7-ylamino)-13-oxa-4,11-diaza-tricyclo[14.2.2.1^6,10]henicosa-1(19),6,8,10(21),16(20),17-hexaen-4-yl]-propionic acid ethyl ester]
0.00195 µM	Cc1cc2ccc1[C@@H](C)COC(=O)Nc1ccc(N3CCCCS3(=O)=O)c(c1)CN(C)C(=O)[C@@H]2Nc1ccc2cc[nH]c(=O)c2c1 [Example 86, (2R,15R)-7-(1,1-Dioxo-1λ^6-perhydro-1,2-thiazin-2-yl)-4,15,17-trimethyl-2-(1-oxo-1,2-dihydro-isoquinolin-7-ylamino)-13-oxa-4,11-diaza-tricyclo[14.2.2.1^6,10]henicosa-1(19),6,8,10(21),16(20),17-hexaene-3,12-dione]
0.024 µM and 0.0404 µM	COc1cc2cc(OC)c1CCOC(=O)Nc1cccc(c1)[C@@H](CC(=O)O)NC(=O)[C@@H]2Nc1ccc2nc[nH]c(=O)c2c1 [Example 13, [(2R,5R)-17,20-Dimethoxy-3,12-dioxo-2-(4-oxo-3,4-dihydro-quinazolin-6-ylamino)-13-oxa-4,11-diaza-tricyclo[14.2.2.1^6,10]henicosa-1(19),6,8,10(21),16(20),17-hexaen-5-yl]-acetic acid]
0.0271 µM and 0.0975 µM	Cc1cc2ccc1[C@@H](C)COC(=O)Nc1cccc(c1)[C@@H](C)NC(=O)[C@@H]2Nc1ccc2cc[nH]c(=O)c2c1 [Example 158]
0.00157 µM	CCO[C@H]1COC(=O)Nc2ccc(S(=O)(=O)C3CC3)c(c2)CN(C)C(=O)[C@H](Nc2ccc3cc[nH]c(=O)c3c2)c2ccc1c(C)c2 (single isomer, unassigned) [Example 40]
1.3 µM	Cc1cc2cc(C)c1CCOC(=O)Nc1cccc(c1)CN(CCC(=O)O)C(=O)C2Nc1ccc2cc[nH]c(=O)c2c1 (centres unmarked) [Example 145, 3-[17,20-Dimethyl-3,12-dioxo-2-(1-oxo-1,2-dihydro-isoquinolin-7-ylamino)-13-oxa-4,11-diaza-tricyclo[14.2.2.1^6,10]henicosa-1(19),6,8,10(21),16(20),17-hexaen-4-yl]-propionic acid]
0.00144 µM	C[C@H]1COC(=O)Nc2ccc(S(=O)(=O)C3CC3)c(c2)CN(C)C(=O)[C@H](Nc2ccc3cc[nH]c(=O)c3c2)c2ccc1c(Cl)c2 [Example 84, (2R,15R)-17-Chloro-7-cyclopropanesulfonyl-4,15-dimethyl-2-(1-oxo-1,2-dihydro-isoquinolin-7-ylamino)-13-oxa-4,11-diaza-tricycle [14.2.2.1^6,10]henicosa-1(19),6,8,10(21),16(20),17-hexaene-3,12-dione]
0.0276 µM	Cc1cc2ccc1[C@@H](C)CCC(=O)Nc1ccc(OC(F)(F)F)c(c1)CN(C)C(=O)[C@@H]2Nc1ccc2c(F)c[nH]c(=O)c2c1 (single isomer, unassigned) [Example 42]
0.0332 µM	Cc1cc2cc(C)c1CN(C(C)C)CC(=O)Nc1ccc(S(=O)(=O)C(C)C)c(c1)CNC(=O)C2Nc1ccc2nc[nH]c(=O)c2c1 (centres unmarked) [Example 124, 14-Isopropyl-17,20-dimethyl-2-(4-oxo-3,4-dihydro-quinazolin-6-ylamino)-7-(propane-2-sulfonyl)-4,11,114-triaza-tricyclo[14.2.2.1^6,10]henicosa-1(19),6,8,10(21),06(20),17-hexaene-3,12-dione bistrifluoroacetate]
0.00069 µM and 0.00086 µM and 0.00087 µM and 0.00096 µM and 0.00114 µM and 0.00122 µM	Cc1cc2ccc1[C@@H](C)COC(=O)Nc1ccc(S(=O)(=O)C3CC3)c(c1)CN(C)C(=O)[C@@H]2Nc1ccc2nc[nH]c(=O)c2c1 [Example 76, (2R,15R)-7-Cyclopropanesulfonyl-4,15,17-trimethyl-2-(4-oxo-3,4-dihydro-quinazolin-6-ylamino)-13-oxa-4,11-diaza-tricyclo[14.2.2.1^6,10]henicosa-1(19),6,8,10(21),16(20),17-hexaene-3,12-dione trifluoroacetate]
0.00135 µM and 0.00138 µM	Cc1cc2ccc1[C@@H](C)COC(=O)Nc1ccc(S(=O)(=O)C3CC3)c(c1)CN(C)C(=O)[C@@H]2Nc1cc2c(=O)[nH]cnc2cc1F [Example 78, (2R,15R)-7-Cyclopropanesulfonyl-2-(7-fluoro-4-oxo-3,4-dihydro-quinazolin-6-ylamino)-4,15,17-trimethyl-13-oxa-4,1-diaza-tricyclo[14.2.2.1^6,10]henicosa-1(19),6,8,10(21),16(20),17-hexaene-3,12-dione]
1.12 µM	Cc1cc2ccc1[C@@H](C)COC(=O)Nc1cccc(c1)CN(CCO)C(=O)[C@@H]2Nc1ccc2cc[nH]c(=O)c2c1 [Example 151, (2R,15R)-4-(2-Hydroxy-ethyl)-15,17-dimethyl-2-(1-oxo-1,2-dihydro-isoquinolin-7-ylamino)-13-oxa-4,11-diaza-tricyclo[14.2.2.1^6,10]henicosa-1(19),6,8,10(21),16(20),17-hexaene-3,12-dione]
